The record followed here is US12612407B2, “Imidazo[2,1-f][1,2,4]triazin-4-amine derivatives as TLR7 agonist” (BEIGENE, LTD., priority 2020, dated 2026).

Where only a bound is given, the exact number is not on record here.

In this assay the target is T1, human TLR7 (Homo sapiens, UniProt Q9NYK1).
T1 construct: host or cells: HEK293 (HEK-Blue hTLR7)
T1 sequence (Q9NYK1 27-1049): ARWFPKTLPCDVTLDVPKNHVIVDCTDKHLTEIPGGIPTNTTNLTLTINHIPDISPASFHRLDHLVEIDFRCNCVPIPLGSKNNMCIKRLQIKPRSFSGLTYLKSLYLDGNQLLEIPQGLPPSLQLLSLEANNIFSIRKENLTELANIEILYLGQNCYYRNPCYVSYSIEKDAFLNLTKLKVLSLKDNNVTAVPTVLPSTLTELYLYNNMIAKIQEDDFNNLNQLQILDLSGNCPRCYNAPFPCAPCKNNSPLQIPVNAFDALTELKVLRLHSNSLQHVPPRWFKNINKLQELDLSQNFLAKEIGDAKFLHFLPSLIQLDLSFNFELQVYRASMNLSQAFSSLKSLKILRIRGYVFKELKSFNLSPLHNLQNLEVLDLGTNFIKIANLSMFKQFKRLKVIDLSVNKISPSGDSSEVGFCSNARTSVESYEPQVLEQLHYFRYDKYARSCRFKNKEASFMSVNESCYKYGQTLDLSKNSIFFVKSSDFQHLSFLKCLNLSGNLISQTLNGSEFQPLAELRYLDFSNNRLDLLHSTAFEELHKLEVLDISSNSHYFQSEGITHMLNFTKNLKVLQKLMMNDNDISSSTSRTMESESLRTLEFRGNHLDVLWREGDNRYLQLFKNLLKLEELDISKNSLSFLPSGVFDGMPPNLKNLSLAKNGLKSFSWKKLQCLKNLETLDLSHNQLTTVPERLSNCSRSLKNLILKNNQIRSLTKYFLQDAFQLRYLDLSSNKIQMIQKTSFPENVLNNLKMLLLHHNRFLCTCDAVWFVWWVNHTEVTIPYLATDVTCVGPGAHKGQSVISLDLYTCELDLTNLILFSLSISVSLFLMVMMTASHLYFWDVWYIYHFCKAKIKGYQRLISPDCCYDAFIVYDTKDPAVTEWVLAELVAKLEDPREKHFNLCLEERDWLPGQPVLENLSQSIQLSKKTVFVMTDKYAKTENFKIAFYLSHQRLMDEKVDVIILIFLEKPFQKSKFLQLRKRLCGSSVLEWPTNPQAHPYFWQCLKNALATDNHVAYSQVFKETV
The experiment in a line: HEK293-Blue hTLR7 Reporter Assay (QUANTI-BLUE, SEAP readout). In kind it is cell-based. The conditions noted are these: HEK-Blue-hTLR7 cells, 24 hrs treatment, Table 1, B1-B232. The essentials:
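HEK-Blue-hTLR7 cells expressing NF-κB/AP-1-driven SEAP, 4×10^4 cells/well, treated 24 h at 37° C with increasing compound concentrations. Supernatant SEAP measured with Quanti-blue substrate (10-30 min, 37° C) at 620-655 nm; EC50 from sigmoidal dose-response fit.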
For orientation: Reporter assays use an easily measured gene product as a stand-in for the process of interest.

As a reminder, the EC50 is the concentration that produces a half-maximal response. Read a high EC50 as a need for much substance. Turning to `Cc1cc(Cc2cnc3c(N)nc(OC(C)C)nn23)cnc1N1CCNCC1` [Compound B66, 2-isopropoxy-7-((5-methyl-6-(piperazin-1-yl)pyridin-3-yl)methyl)imidazo[2,1-f][1,2,4]triazin-4-amine], the EC50 stood at 146 nM. As for “2-butoxy-7-((6-(4-ethylpiperazin-1-yl)-5-methylpyridin-3-yl)methyl)imidazo[2,1-f][1,2,4]triazin-4-amine [Compound B115]”, the half-maximal effective concentration (EC50) is 190 nM. Consider `CCCCOc1nc(N)c2ncc(Cc3cnc(N4CCN(C(=O)CN(C)C(C)=O)CC4)c(C)c3)n2n1` [Compound B58, N-(2-(4-(5-((4-amino-2-butoxyimidazo[2,1-f][1,2,4]triazin-7-yl)methyl)-3-methylpyridin-2-yl)piperazin-1-yl)-2-oxoethyl)-N-methylacetamide], for which the EC50 is 3250 nM.

As for `CCCC(CC)Oc1nc(N)c2ncc(Cc3cnc(N4CCC(N(C)C)CC4)c(C)c3)n2n1` (stereo not drawn) [Compound B163, 7-((6-(4-(dimethylamino)piperidin-1-yl)-5-methylpyridin-3-yl)methyl)-2-(hexan-3-yloxy)imidazo[2,1-f][1,2,4]triazin-4-amine], the EC50 was determined as 2.5 nM. With `CCCCOc1nc(N)c2ncc(Cc3cnc(N4CCN(CCc5ccccc5)CC4)c(C)c3)n2n1` [Compound B116, 2-butoxy-7-((5-methyl-6-(4-phenethylpiperazin-1-yl)pyridin-3-yl)methyl)imidazo[2,1-f][1,2,4]triazin-4-amine], the EC50 was 1190 nM. As to “2-butoxy-7-((6-(piperidin-4-yl)-5-(trifluoromethyl)pyridin-3-yl)methyl)imidazo[2,1-f][1,2,4]triazin-4-amine [Compound B28]”, the 50% effective concentration (EC50) amounted to 302 nM.

Take `CCCC(CCC)Oc1nc(N)c2ncc(Cc3cnc(N4CCC(N(C)C)CC4)c(C)c3)n2n1` [Compound B186, 7-((6-(4-(dimethylamino)piperidin-1-yl)-5-methylpyridin-3-yl)methyl)-2-(heptan-4-yloxy)imidazo[2,1-f][1,2,4]triazin-4-amine]: the response was half-maximal at 4.9 nM (EC50). The result for `CCCCOc1nc(N)c2ncc(Cc3ccc(C4CCNCC4)cc3)n2n1` [Compound B3, 2-butoxy-7-(4-(piperidin-4-yl)benzyl)imidazo[2,1-f][1,2,4]triazin-4-amine] reads 327 nM. In turn, `CCCCOc1nc(N)c2ncc(Cc3ccc(N4CCNCC4)c(OC(F)(F)F)c3)n2n1` [Compound B27, 2-butoxy-7-(4-(piperazin-1-yl)-3-(trifluoromethoxy)benzyl)imidazo[2,1-f][1,2,4]triazin-4-amine] yielded an EC50 of 971 nM. The figure for `CCC[C@@H](C)Oc1nc(N)c2ncc(Cc3cnc(N4CCC(CNC)CC4)c(C)c3)n2n1` (single isomer, unassigned) [Compound B222] is 60 nM. The figure for `C=CCCOc1nc(N)c2ncc(Cc3cnc(N4CCNCC4)c(C)c3)n2n1` [Compound B80, 2-(but-3-en-1-yloxy)-7-((5-methyl-6-(piperazin-1-yl)pyridin-3-yl)methyl)imidazo[2,1-f][1,2,4]triazin-4-amine] is 242 nM; for `CCCC(C)Oc1nc(N)c2ncc(Cc3cnc(N4CCN(C(=O)CNC)CC4)c(C)c3)n2n1` (stereo not drawn) [Compound B111, 1-(4-(5-((4-amino-2-(pentan-2-yloxy)imidazo[2,1-f][1,2,4]triazin-7-yl)methyl)-3-methylpyridin-2-yl)piperazin-1-yl)-2-(methylamino)ethan-1-one] it is 9.8 nM; for `Cc1cc(Cc2cnc3c(N)nc(OCCOc4ccccc4)nn23)cnc1N1CCNCC1` [Compound B25, 7-((5-methyl-6-(piperazin-1-yl)pyridin-3-yl)methyl)-2-(2-phenoxyethoxy)imidazo[2,1-f][1,2,4]triazin-4-amine] it is over 10000 nM. `CCCC(CCC)Nc1nc(N)c2ncc(Cc3cnc(N4CCC(CNC)CC4)c(C)c3)n2n1` [Compound B220, N2-(heptan-4-yl)-7-((5-methyl-6-(4-((methylamino)methyl)piperidin-1-yl)pyridin-3-yl)methyl)imidazo[2,1-f][1,2,4]triazine-2,4-diamine]: the response was half-maximal at 3.6 nM (EC50). `CCCCOc1nc(N)c2ncc(Cc3ccc(N4CCNCC4)c(CC)c3)n2n1` [Compound B92, 2-butoxy-7-(3-ethyl-4-(piperazin-1-yl)benzyl)imidazo[2,1-f][1,2,4]triazin-4-amine] gave an EC50 of 464 nM. In turn, `Cc1cc(Cc2cnc3c(N)nc(OCCn4ccnc4)nn23)cnc1N1CCNCC1` [Compound B42, 2-(2-(1H-imidazol-1-yl)ethoxy)-7-((5-methyl-6-(piperazin-1-yl)pyridin-3-yl)methyl)imidazo[2,1-f][1,2,4]triazin-4-amine] returned a half-maximal effective concentration (EC50) of over 10000 nM. For `CC[C@H](C)Oc1nc(N)c2ncc(Cc3cnc(N4CCNCC4)c(C)c3)n2n1` [Compound B158, (S)-2-(sec-butoxy)-7-((5-methyl-6-(piperazin-1-yl)pyridin-3-yl)methyl)imidazo[2,1-f][1,2,4]triazin-4-amine], the EC50 was determined as 6.5 nM. The figure for `CCCCOc1nc(N)c2ncc(Cc3cnc(N4CCN(C(=O)CCN(C)C)CC4)c(C)c3)n2n1` [Compound B37, 1-(4-(5-((4-amino-2-butoxyimidazo[2,1-f][1,2,4]triazin-7-yl)methyl)-3-methylpyridin-2-yl)piperazin-1-yl)-3-(dimethylamino)propan-1-one] is 148 nM. The result for `CCCCNc1nc(N)c2ncc(Cc3cnc(N4CCC(N)CC4)c(C)c3)n2n1` [Compound B88, 7-((6-(4-aminopiperidin-1-yl)-5-methylpyridin-3-yl)methyl)-N2-butylimidazo[2,1-f][1,2,4]triazine-2,4-diamine] reads 61 nM; that for `CCCCOc1nc(N)c2ncc(Cc3cnc(N4CCN(C(=O)CCCCN(C)C)CC4)c(C)c3)n2n1` [Compound B50, 1-(4-(5-((4-amino-2-butoxyimidazo[2,1-f][1,2,4]triazin-7-yl)methyl)-3-methylpyridin-2-yl)piperazin-1-yl)-5-(dimethylamino)pentan-1-one], 151 nM; that for `CCC[C@H](C)Oc1nc(N)c2ncc(Cc3cnc(N4CCC(NCC(C)C)CC4)c(C)c3)n2n1` [Compound B215, (S)-7-((6-(4-(isobutylamino)piperidin-1-yl)-5-methylpyridin-3-yl)methyl)-2-(pentan-2-yloxy)imidazo[2,1-f][1,2,4]triazin-4-amine], 4.2 nM. For the molecule `CCCCOc1nc(N)c2ncc(Cc3cc(C)c(N4CCNCC4)cn3)n2n1` [Compound B33, 2-butoxy-7-((4-methyl-5-(piperazin-1-yl)pyridin-2-yl)methyl)imidazo[2,1-f][1,2,4]triazin-4-amine], a half-maximal effect (EC50) was put at 218 nM. For `CCCCOc1nc(N)c2ncc(Cc3cnc(N4CCNCC4)c(Cl)c3)n2n1` [Compound B2, 2-butoxy-7-((5-chloro-6-(piperazin-1-yl)pyridin-3-yl)methyl)imidazo[2,1-f][1,2,4]triazin-4-amine], a half-maximal effect (EC50) was put at 434 nM. `CCCCOc1nc(N)c2ncc(Cc3cnc(N4CCC(N(C)C)C4)c(C)c3)n2n1` (stereo not drawn) [Compound B87, 2-butoxy-7-((6-(3-(dimethylamino)pyrrolidin-1-yl)-5-methylpyridin-3-yl)methyl)imidazo[2,1-f][1,2,4]triazin-4-amine]: the concentration for a half-maximal effect (EC50) was determined as 435 nM.
